Reference: US20260250318A1, “COMPOSITIONS AND METHODS FOR CROSSING THE BLOOD BRAIN BARRIER” (VOYAGER THERAPEUTICS, INC., priority 2022, published 2026)

Experiments:
Settings in all cases: synthetic library passage 3, intravenous, relative to wild-type AAV9
brain [1] = experiment: NGS fold enrichment of synthetic library (passage 3) in BALB/c mice, first cross-species screen; assay type: in vivo
Description: (§1) After creation of the synthetic library with the sub-selected variants, the synthetic library was screened (passage 3) in two NHPs (2-4 years of age) and two strains of mice, BALB/c (n=3, 6-8 weeks of age) and C57Bl/6 mice (n=3, 6-8 weeks of age), in a first cross-species evolution screen. The animals were injected intravenously with the synthetic library. After a period in vivo, (e.g., 28-days) RNA was extracted from nervous tissue, e.g., brain, spinal cord, and DRG of the NHPs and the brains of mice. Following RNA recovery and RT-PCR amplification, a systematic NGS enrichment analysis was performed, and the peptides comprised within the variants were identified and the capsid enrichment ratio for each variant compared to the wild-type AAV9 control was calculated (fold enrichment relative to wild-type AAV9) (Table 9). […] All animals were dosed intravenously at […] across the screen.

brain [2] = experiment: NGS fold enrichment of synthetic library (passage 3) in C57Bl/6 mice, first cross-species screen; assay type: in vivo
Description: as §1

[3] = tested on: brain, spinal cord, and DRG of the NHPs; experiment: NGS fold enrichment of synthetic library (passage 3) in NHPs, first cross-species screen; assay type: in vivo, cynomolgus macaques (Macaca fascicularis)
Description: as §1

[4] = RNA from brain of BALB/c mice, NGS
[5] = RNA from brain of C57Bl/6 mice, NGS
[6] = RNA from spinal cord of NHPs, NGS

| Sequence | Fold enrichment over AAV9 in the brain of Mice (BALB/c) (brain [1]; RNA NGS, brain of BALB/c mice) [fold] | Fold enrichment over AAV9 in the brain of Mice (C57Bl/6) (brain [2]; RNA NGS, brain of C57Bl/6 mice) [fold] | Fold enrichment over AAV9 in the brain of NHPs ([3]; RNA NGS, brain of NHPs) [fold] | Fold enrichment over AAV9 in the spinal cord of NHPs ([3]; RNA NGS, spinal cord of NHPs) [fold] | Fold enrichment over AAV9 in the brain of Mice (BALB/c) (brain [1]; [4]) [fold] | Fold enrichment over AAV9 in the brain of Mice (C57Bl/6) (brain [2]; [5]) [fold] | Fold enrichment over AAV9 in the brain of NHPs ([3]; RNA from brain of NHPs, NGS) [fold] | Fold enrichment over AAV9 in the spinal cord of NHPs [3, 6] [fold] |
| --- | --- | --- | --- | --- | --- | --- | --- | --- |
| GSGQSHSLATNQQT | 0.343 | 1.021 | 1.745 | 2.711 | – | – | – | – |
| GSGQLVTSGPNQQT | 0.433 | 0.964 | 1.669 | 5.271 | – | – | – | – |
| GSRQSKRNELNQQT | 0.232 | 1.325 | 2.177 | 0.000 | – | – | – | – |
| GREYGHKSGQNQQT | 0.959 | 1.422 | 3.453 | 0.000 | – | – | – | – |
| GSVSTHSSGQNQQT | 0.918 | 1.198 | 2.145 | 3.446 | – | – | – | – |
| GNGLYAVSGQNQQT | 0.213 | 0.322 | 2.611 | 9.148 | – | – | – | – |
| GLSNPMPSGQNQQT | 0.829 | 1.190 | 2.280 | 6.033 | – | – | – | – |
| GLGSKNPSGQNQQT | – | – | – | – | 0.424 | 1.184 | 1.147 | 1.629 |
| GILLATPSGQNQQT | 0.288 | 1.341 | 1.931 | 8.205 | – | – | – | – |
| GSHGHYASGQKQQT | 0.685 | 0.895 | 2.016 | 0.000 | – | – | – | – |
| GSGQSSGRLINKQT | 0.277 | 0.543 | 2.055 | 28.135 | – | – | – | – |
| GSGQNQQPHLKSLT | 0.740 | 1.096 | 1.457 | 5.016 | – | – | – | – |
| GSGQNQRSSGGVQT | 1.165 | 1.805 | 1.723 | 2.056 | – | – | – | – |
| GSTVQDTRGQNQQT | 0.473 | 0.576 | 2.270 | 4.979 | – | – | – | – |
| GSTGIVSSGQNQQT | 1.046 | 2.141 | 1.570 | 0.927 | – | – | – | – |
| GSGTHLVSLQNQQT | – | – | – | – | 1.167 | 0.715 | 1.392 | 0.000 |
| GFMSYKGSGQNQQT | 0.569 | 1.808 | 2.865 | 0.209 | – | – | – | – |
| GSGQNQRGALATQT | 0.891 | 0.899 | 1.722 | 1.117 | – | – | – | – |
| GRMFSLGSGQNQQT | 1.174 | 1.630 | 1.836 | 8.429 | – | – | – | – |
| GSGQNQQTPLRPPT | 0.472 | 0.874 | 1.624 | 0.352 | – | – | – | – |
| GSGQNQQTSGTTNC | 0.806 | 1.040 | 1.854 | 8.161 | – | – | – | – |
| GSGQNQQTTASSHT | 0.678 | 0.745 | 1.618 | 7.404 | – | – | – | – |
| GSGQNQQTALEKSL | 0.702 | 0.625 | 1.092 | 0.000 | – | – | – | – |
| GSQSTLGLGQNQQT | – | – | – | – | 0.400 | 0.594 | 1.204 | 3.246 |
| GSGQSYDMRGNQQT | – | – | – | – | 0.368 | 0.588 | 1.248 | 0.567 |
| GNIQWQGSGQNQQT | 0.837 | 1.182 | 2.468 | 6.266 | – | – | – | – |
